Reference: US5814488A (priority 1993, dated 1998)
In brackets after ≈: the same amount, converted by molar mass. Like-named read-outs stand apart in the source and are kept apart here.

Assays:
Enterobacter aerugenes = experiment: In vitro antibacterial activity against 1108 strains pathogenic bacteria (Table 4); format: cell-based
Source text: (§1) […]. […] […]

Escherichia coli [1] = experiment: as above; format: cell-based
Source text: as §1

Pseudomonas sp. [2] = experiment: as above; format: cell-based; settings: 204 strains
Source text: as §1

Klebsiella pneumoniae [3] = experiment: as above; format: cell-based
Source text: as §1

Acinetobacter sp. = experiment: as above; format: cell-based; settings: 27 strains
Source text: as §1

Proteus mirabilis = experiment: as above; format: cell-based; settings: 60 strains
Source text: as §1

Salmonella typhi = experiment: as above; format: cell-based; settings: Salmonella enterica
Source text: as §1

Ciltrobacter sp. = experiment: as above; format: cell-based; settings: 30 strains
Source text: as §1

Shigella dysenteriae = experiment: as above; format: cell-based
Streptococcus pyogenes = experiment: as above; format: cell-based; settings: 27 strains
[4] = tested on: Methicillin resistant S. aureus; experiment: as above; format: cell-based; settings: Staphylococcus aureus, 53 strains
Streptococcus faecalis = experiment: as above; format: cell-based; settings: Enterococcus faecalis, 33 strains
bacteria infected mice = experiment: In vivo therapeutic effect on bacteria infected mice; settings: similar to those in vitro
[5] = tested on: Staphylococcus epidermidis; experiment: In vitro antibacterial activity against 1108 strains pathogenic bacteria (Table 4); format: cell-based; settings: 27 strains
Streptococcus pneumoniae = experiment: as above; format: cell-based; settings: 14 strains
Streptococcus viridans = experiment: as above; format: cell-based; settings: 27 strains
Enterobacter cloacae = experiment: as above; format: cell-based; settings: 29 strains
Staphylococcus arueus = experiment: as above; format: cell-based; settings: 190 strains
Serratia sp. = experiment: as above; format: cell-based; settings: 30 strains
[6] = Chronic toxicity, rat i.p. 90 days
Escherichia coli [7] = experiment: Comparison of MIC and MBC (Tables 5 and 6); format: cell-based
Source text: as §1

Pseudomonas sp. [8] = experiment: Comparison of MIC and MBC (Tables 5 and 6); format: cell-based
Source text: as §1

Klebsiella pneumoniae [9] = experiment: Comparison of MIC and MBC (Tables 5 and 6); format: cell-based
Source text: as §1

S. aureus = experiment: Comparison of MIC and MBC (Tables 5 and 6); format: cell-based; settings: S. aureus, 31 strains
Source text: as §1

Shigella = experiment: Comparison of MIC and MBC (Tables 5 and 6); format: cell-based
Source text: as §1

Haemophilus influenzae = experiment: In vitro antibacterial activity against 1108 strains pathogenic bacteria (Table 4); format: cell-based; settings: 8 strains
[10] = Nephrotoxicity to rat after i.m. administration; settings: gentamicin at 150 MKD and 100 MKD from seventh day
[11] = Acute toxicity, Kunming mice; settings: versus netilmicin and GM
[12] = Enterobacter aerugenes, 27 strains
[13] = Table 5, 20 strains, read-out: MBC50
[14] = Table 5, 20 strains, read-out: MBC90
[15] = Table 6, 20 strains, unit assumed

CCNC1CC(N)C(OC2OC(CN)CCC2N)C(O)C1OC1OCC(C)(O)C(NC)C1O (stereo not drawn)
MIC50 (Enterobacter aerugenes; [12]): 0.25 µg/mL (≈ 0.523 µM) | MIC90 (Enterobacter aerugenes; [12]): 16 µg/mL (≈ 33.5 µM) | MIC (Enterobacter aerugenes; Enterobacter aerugenes, 27 strains, read-out: MIC range): 0.062 to 32 µg/mL (≈ 0.13 to 67 µM) | MIC (Enterobacter aerugenes; Enterobacter, read-out: Mode MIC): 0.125 µg/mL (≈ 0.262 µM) | MIC50 (Escherichia coli [1]; 146 strains): 0.25 µg/mL (≈ 0.523 µM) | MIC90 (Escherichia coli [1]; 146 strains): 16 µg/mL (≈ 33.5 µM) | MIC (Escherichia coli [1]; 146 strains, read-out: Mode MIC): 0.25 µg/mL (≈ 0.523 µM) | MIC (Escherichia coli [1]; read-out: MIC range): 0.125 to 64 µg/mL (≈ 0.262 to 134 µM) | MIC50 (Pseudomonas sp. [2]): 8 µg/mL (≈ 16.8 µM) | MIC90 (Pseudomonas sp. [2]): > 256 µg/mL | MIC (Pseudomonas sp. [2]; read-out: Mode MIC): 8 µg/mL (≈ 16.8 µM) | MIC50 (Klebsiella pneumoniae [3]): 0.125 µg/mL (≈ 0.262 µM) | MIC90 (Klebsiella pneumoniae [3]; 115 strains): 8 µg/mL (≈ 16.8 µM) | MIC range (Klebsiella pneumoniae [3]; 115 strains, in µg/mL (unit assumed)): 0.062-128 | MIC (Klebsiella pneumoniae [3]; read-out: Mode MIC): 0.125 µg/mL (≈ 0.262 µM) | MIC50 (Acinetobacter sp.): 0.5 µg/mL (≈ 1.05 µM) | MIC90 (Acinetobacter sp.): 256 µg/mL (≈ 536 µM) | MIC range (Acinetobacter sp.; in µg/mL (unit assumed)): 0.125-256 | MIC (Acinetobacter sp.; read-out: Mode MIC): 0.25 µg/mL (≈ 0.523 µM) | MIC50 (Proteus mirabilis): 0.5 µg/mL (≈ 1.05 µM) | MIC90 (Proteus mirabilis): 2 µg/mL (≈ 4.19 µM) | MIC range (Proteus mirabilis; in µg/mL (unit assumed)): 0.125-128 | MIC (Proteus mirabilis; read-out: Mode MIC): 0.5 µg/mL (≈ 1.05 µM) | MIC50 (Salmonella typhi): 0.5 µg/mL (≈ 1.05 µM) | MIC90 (Salmonella typhi): 8 µg/mL (≈ 16.8 µM) | MIC (Salmonella typhi; read-out: MIC range): 0.062 to 32 µg/mL (≈ 0.13 to 67 µM) | MIC (Salmonella typhi; read-out: Mode MIC): 0.5 µg/mL (≈ 1.05 µM) | MIC50 (Ciltrobacter sp.): 0.25 µg/mL (≈ 0.523 µM) | MIC90 (Ciltrobacter sp.): 16 µg/mL (≈ 33.5 µM) | MIC range (Ciltrobacter sp.; in µg/mL (unit assumed)): 0.125-128 | MIC (Ciltrobacter sp.; read-out: Mode MIC): 0.25 µg/mL (≈ 0.523 µM) | MIC50 (Shigella dysenteriae): 0.25 µg/mL (≈ 0.523 µM) | MIC90 (Shigella dysenteriae): 0.5 µg/mL (≈ 1.05 µM) | MIC (Shigella dysenteriae; read-out: MIC range): 0.125 to 64 µg/mL (≈ 0.262 to 134 µM) | MIC (Shigella dysenteriae; read-out: Mode MIC): 0.25 µg/mL (≈ 0.523 µM) | MIC50 (Streptococcus pyogenes): 1 µg/mL (≈ 2.09 µM) | MIC90 (Streptococcus pyogenes): 32 µg/mL (≈ 67 µM) | MIC (Streptococcus pyogenes; read-out: MIC range): 0.25 to 128 µg/mL (≈ 0.523 to 268 µM) | MIC (Streptococcus pyogenes; read-out: Mode MIC): 1 µg/mL (≈ 2.09 µM) | MIC50 [4]: 8 µg/mL (≈ 16.8 µM) | MIC90 [4]: 32 µg/mL (≈ 67 µM) | MIC ([4]; read-out: MIC range): 0.5 to 128 µg/mL (≈ 1.05 to 268 µM) | MIC ([4]; read-out: Mode MIC): 8 µg/mL (≈ 16.8 µM) | MIC50 (Streptococcus faecalis): 32 µg/mL (≈ 67 µM) | MIC90 (Streptococcus faecalis): 256 µg/mL (≈ 536 µM) | MIC (Streptococcus faecalis; read-out: MIC range): 0.5 to 256 µg/mL (≈ 1.05 to 536 µM) | MIC (Streptococcus faecalis; read-out: Mode MIC): 1 µg/mL (≈ 2.09 µM) | inhibitive and germicide activities in vivo (bacteria infected mice): high inhibitive activities and germicide activities in vivo which are similar to those in vitro | MIC50 [5]: 0.31 µg/mL (≈ 0.649 µM) | MIC90 [5]: 1 µg/mL (≈ 2.09 µM) | MIC ([5]; read-out: MIC range): 0.031 to 16 µg/mL (≈ 0.0649 to 33.5 µM) | MIC ([5]; read-out: Mode MIC): 0.031 µg/mL (≈ 0.0649 µM) | MIC50 (Streptococcus pneumoniae): 0.25 µg/mL (≈ 0.523 µM) | MIC90 (Streptococcus pneumoniae): 4 µg/mL (≈ 8.38 µM) | MIC (Streptococcus pneumoniae; read-out: MIC range): 0.031 to 16 µg/mL (≈ 0.0649 to 33.5 µM) | MIC (Streptococcus pneumoniae; read-out: Mode MIC): 0.031 µg/mL (≈ 0.0649 µM) | MIC50 (Streptococcus viridans): 1 µg/mL (≈ 2.09 µM) | MIC90 (Streptococcus viridans): 4 µg/mL (≈ 8.38 µM) | MIC (Streptococcus viridans; read-out: MIC range): 0.062 to 4 µg/mL (≈ 0.13 to 8.38 µM) | MIC (Streptococcus viridans; read-out: Mode MIC): 2 µg/mL (≈ 4.19 µM) | MIC50 (Enterobacter cloacae): 2 µg/mL (≈ 4.19 µM) | MIC90 (Enterobacter cloacae): 64 µg/mL (≈ 134 µM) | MIC (Enterobacter cloacae; read-out: Mode MIC): 0.25 µg/mL (≈ 0.523 µM) | MIC50 (Staphylococcus arueus): 1 µg/mL (≈ 2.09 µM) | MIC90 (Staphylococcus arueus): 16 µg/mL (≈ 33.5 µM) | MIC range (Staphylococcus arueus; in µg/mL (unit assumed)): 0.031-128 | MIC (Staphylococcus arueus; read-out: Mode MIC): 0.062 µg/mL (≈ 0.13 µM) | MIC50 (Serratia sp.): 0.5 µg/mL (≈ 1.05 µM) | MIC90 (Serratia sp.): 32 µg/mL (≈ 67 µM) | MIC range (Serratia sp.; in µg/mL (unit assumed)): 0.062-256 | MIC (Serratia sp.; read-out: Mode MIC): 0.5 µg/mL (≈ 1.05 µM) | chronic toxicity, comparison with MCR [6]: not greater than that of MCR | MIC50 (Escherichia coli [7]): 0.125 µg/mL (≈ 0.262 µM) | MBC (Escherichia coli [7]; [13]): 0.25 µg/mL (≈ 0.523 µM) | MBC (Escherichia coli [7]; [14]): 1 µg/mL (≈ 2.09 µM) | MIC90 (Escherichia coli [7]; Table 5, 20 strains, read-out: MIC90): 0.5 µg/mL (≈ 1.05 µM) | MBC90 (Escherichia coli [7]; [15]): 1 µg/mL (≈ 2.09 µM) | MBC (Escherichia coli [7]; read-out: MBC range): 0.125 to 8 µg/mL (≈ 0.262 to 16.8 µM) | MIC50 (Pseudomonas sp. [8]; Pseudomonas): 1 µg/mL (≈ 2.09 µM) | MIC90 (Pseudomonas sp. [8]; Pseudomonas): 4 µg/mL (≈ 8.38 µM) | MBC (Pseudomonas sp. [8]; Pseudomonas, read-out: MBC50): 2 µg/mL (≈ 4.19 µM) | MBC (Pseudomonas sp. [8]; Pseudomonas, read-out: MBC90): 8 µg/mL (≈ 16.8 µM) | MBC (Pseudomonas sp. [8]; Table 6, Pseudomonas sp., 20 strains, read-out: MBC range): 0.25 to 16 µg/mL (≈ 0.523 to 33.5 µM) | MBC90 (Pseudomonas sp. [8]; Table 6, Pseudomonas sp., 20 strains, unit assumed): 8 µg/mL (≈ 16.8 µM) | MIC50 (Klebsiella pneumoniae [9]): 0.125 µg/mL (≈ 0.262 µM) | MIC90 (Klebsiella pneumoniae [9]): 0.125 µg/mL (≈ 0.262 µM) | MBC (Klebsiella pneumoniae [9]; [13]): 0.25 µg/mL (≈ 0.523 µM) | MBC (Klebsiella pneumoniae [9]; [14]): 0.5 µg/mL (≈ 1.05 µM) | MBC (Klebsiella pneumoniae [9]; Table 6, 20 strains, read-out: MBC range): 0.062 to 1 µg/mL (≈ 0.13 to 2.09 µM) | MBC90 (Klebsiella pneumoniae [9]; [15]): 0.5 µg/mL (≈ 1.05 µM) | MBC (S. aureus; Staphylococcus aureus, Table 5, read-out: MBC50): 0.5 µg/mL (≈ 1.05 µM) | MBC (S. aureus; Staphylococcus aureus, Table 5, read-out: MBC90): 2 µg/mL (≈ 4.19 µM) | MIC50 (S. aureus; Staphylococcus aureus, Table 5, read-out: MIC50): 0.062 µg/mL (≈ 0.13 µM) | MIC90 (S. aureus; Staphylococcus aureus, Table 5, read-out: MIC90): 0.25 µg/mL (≈ 0.523 µM) | MBC (S. aureus; Staphylococcus aureus, Table 6, read-out: MBC range): 0.062 to 4 µg/mL (≈ 0.13 to 8.38 µM) | MBC90 (S. aureus; Table 6, unit assumed): 2 µg/mL (≈ 4.19 µM) | MIC50 (Shigella; Table 5, 10 strains): 0.062 µg/mL (≈ 0.13 µM) | MBC (Shigella; Table 5, 10 strains, read-out: MBC50): 0.5 µg/mL (≈ 1.05 µM) | MBC (Shigella; Table 5, 10 strains, read-out: MBC90): 1 µg/mL (≈ 2.09 µM) | MIC90 (Shigella; Table 5, 10 strains, read-out: MIC90): 0.125 µg/mL (≈ 0.262 µM) | MBC (Shigella; Table 6, 10 strains, read-out: MBC range): 0.125 to 1 µg/mL (≈ 0.262 to 2.09 µM) | MBC90 (Shigella; Table 6, 10 strains, unit assumed): 1 µg/mL (≈ 2.09 µM) | MIC50 (Haemophilus influenzae): 0.031 µg/mL (≈ 0.0649 µM) | MIC90 (Haemophilus influenzae): 4 µg/mL (≈ 8.38 µM) | MIC (Haemophilus influenzae; read-out: MIC range): 0.031 to 4 µg/mL (≈ 0.0649 to 8.38 µM) | MIC (Haemophilus influenzae; read-out: Mode MIC): 0.031 µg/mL (≈ 0.0649 µM) | dead animals [10]: no dead | acute toxicity, comparison [11]: lower than that of netilmicin obviously and similar to that of GM
